Laboratory results reported in the NIST ThermoML archive (doi:10.1021/je101012n).

Test: mn = molality of the nth substance listed, in mol/kg
Details: 101 kPa, Liquid, Alternating current cell with electrodes

O=S(=O)([O-])[O-].[Fe+2] [iron(II) sulfate] + O
electrical conductivity [S/m]
Details	278.1 K	283.1 K	298.15 K	308.15 K	318.15 K	343.15 K	363.15 K
m1 = 0.00112	0.06212	0.06791	0.08697	0.09771	0.1075	0.1235	0.1274
m1 = 0.00212	0.06435	0.07287	0.09366	0.1063	0.1165	0.1409	0.1543
m1 = 0.01287	0.1183	0.1326	0.1784	0.2092	0.2419	0.3214	0.3988
m1 = 0.1121	0.2469	0.269	0.3516	0.3913	0.4714	–	–
m1 = 0.2576	1.238	1.415	1.98	2.303	2.692	3.631	4.11

O=[N+]([O-])[O-].O=[N+]([O-])[O-].[Mg+2] [magnesium nitrate] + O
electrical conductivity [S/m]
Details	278.1 K	283.1 K	298.15 K	308.15 K	318.15 K	343.15 K	363.15 K
m1 = 9.8e-05	0.007334	0.008166	0.01072	0.01244	0.01407	0.01831	0.02164
m1 = 0.000976	0.01971	0.02238	0.03083	0.03667	0.04272	0.0591	0.07277
m1 = 0.00937	0.1291	0.1472	0.2073	0.2488	0.2927	0.4146	0.5165
m1 = 0.09844	1.079	1.228	1.724	2.078	2.442	3.471	4.261
m1 = 0.3271	3.129	3.538	4.926	5.922	6.968	9.861	11.62

O=S(=O)([O-])O.[K+] [hydrogen potassium sulfate] + O
electrical conductivity [S/m]
Details	278.15 K	283.15 K	298.15 K	308.15 K	318.15 K	343.15 K	363.15 K
m1 = 0.000161	0.006027	0.006684	0.008772	0.01017	0.01154	0.01478	0.01675
m1 = 0.000981	0.03588	0.03981	0.05156	0.05895	0.06564	0.07958	0.0854
m1 = 0.01608	0.4635	0.5067	0.623	0.6784	0.7238	0.7958	0.8195
m1 = 0.09815	2.141	2.318	2.791	2.998	3.157	3.469	3.665
m1 = 0.2291	4.379	4.728	5.71	6.137	6.456	7.159	7.699

[Ba+2].[Cl-].[Cl-] [barium chloride] + O
electrical conductivity [S/m]
Details	278.15 K	283.15 K	298.15 K	308.15 K	318.15 K	343.15 K	363.15 K
m1 = 9.2e-05	0.001632	0.00188	0.002597	0.003085	0.003626	0.005187	0.00644
m1 = 0.0011	0.01799	0.0206	0.02897	0.03508	0.04141	0.05911	0.07372
m1 = 0.00896	0.1386	0.1585	0.2229	0.2681	0.3161	0.4493	0.5593
m1 = 0.1029	1.366	1.553	2.167	2.588	3.034	4.247	4.814
m1 = 0.31	3.657	4.127	5.589	6.794	7.859	10.32	12.51

[Cl-].[Cs+] [cesium chloride] + O
electrical conductivity [S/m]
Details	278.15 K	283.15 K	298.15 K	308.15 K	318.15 K	343.15 K	363.15 K
m1 = 0.000106	0.001018	0.001151	0.001597	0.001917	0.002242	0.003135	0.004007
m1 = 0.00101	0.009529	0.01089	0.0151	0.01817	0.02103	0.0293	0.03658
m1 = 0.01058	0.09738	0.1107	0.1539	0.185	0.2142	0.2972	0.3702
m1 = 0.1009	0.8548	0.9735	1.346	1.614	1.859	2.604	3.107
m1 = 0.4763	3.754	4.256	5.762	6.816	7.917	11.01	13.23
m1 = 1.09	8.303	9.355	12.29	14.25	16.55	22.98	26.87

O=C([O-])[O-].[Na+].[Na+] [sodium carbonate] + O
electrical conductivity [S/m]
Details	278.15 K	283.15 K	298.15 K	308.15 K	318.15 K	343.15 K	363.15 K
m1 = 0.000912	0.01348	0.01603	0.02439	0.02888	0.03495	0.05196	0.06513
m1 = 0.01031	0.1285	0.1491	0.2182	0.2684	0.3237	0.4867	0.6187
m1 = 0.09334	0.886	1.024	1.486	1.822	2.182	3.222	4.117
m1 = 0.3041	2.324	2.685	3.893	4.781	5.713	8.362	10.64

O=S(=O)([O-])[O-].[K+].[K+] [potassium sulfate] + O
electrical conductivity [S/m]
Details	278.15 K	283.15 K	298.15 K	308.15 K	318.15 K	343.15 K	363.15 K
m1 = 0.000102	0.001969	0.002257	0.003175	0.003884	0.004575	0.006401	0.00794
m1 = 0.00105	0.01881	0.02141	0.03006	0.03611	0.04268	0.06018	0.07466
m1 = 0.01061	0.1685	0.1919	0.2675	0.3216	0.3765	0.5269	0.6441
m1 = 0.1048	1.341	1.523	2.11	2.516	2.94	4.064	4.957
m1 = 0.2029	2.362	2.672	3.705	4.409	5.138	7.099	8.722
m1 = 0.4783	5.151	5.78	7.801	9.298	10.8	14.91	17.97

[Na+].[OH-] [sodium hydroxide] + O
electrical conductivity [S/m]
Details	278.15 K	283.15 K	298.15 K	308.15 K	318.15 K	343.15 K	363.15 K
m1 = 0.001	0.01671	0.01919	0.02459	0.02833	0.03327	0.04401	0.05213
m1 = 0.01	0.1596	0.1793	0.2414	0.2784	0.3201	0.4294	0.5115
m1 = 0.1	1.498	1.677	2.251	2.635	3.026	4.062	4.861
m1 = 0.5	6.639	7.417	9.875	11.59	13.25	17.72	20.63
m1 = 1	12.13	13.5	18.01	21.19	24.38	32.74	36.66

O=[N+]([O-])[O-].[K+] [potassium nitrate] + O
electrical conductivity [S/m]
Details	278.15 K	283.15 K	298.15 K	308.15 K	318.15 K	343.15 K	363.15 K
m1 = 0.000103	0.0009389	0.001073	0.001486	0.001798	0.002048	0.00283	0.00348
m1 = 0.000997	0.008901	0.01015	0.01411	0.01701	0.01956	0.02717	0.0338
m1 = 0.01026	0.0874	0.09971	0.1385	0.1664	0.1919	0.2666	0.3287
m1 = 0.09972	0.7601	0.8658	1.201	1.44	1.669	2.342	2.875
m1 = 0.4093	2.815	3.211	4.407	5.264	6.162	8.59	10.45
m1 = 0.7941	4.806	5.474	7.428	8.831	10.38	14.63	16.97

O=C([O-])O.[K+] [potassium bicarbonate] + O
electrical conductivity [S/m]
Details	278.15 K	283.15 K	298.15 K	308.15 K	318.15 K	343.15 K	363.15 K
m1 = 0.001	0.007403	0.00834	0.01179	0.01416	0.01673	0.02401	0.03038
m1 = 0.00992	0.0687	0.07877	0.1107	0.1335	0.1573	0.2237	0.2794
m1 = 0.09998	0.6141	0.7003	0.9852	1.176	1.383	1.963	2.446
m1 = 0.5001	2.664	3.031	4.206	5.066	5.94	8.391	10.49
m1 = 0.9999	4.748	5.358	7.365	8.802	10.31	14.3	17.93

[F-].[Na+] [sodium fluoride] + O
electrical conductivity [S/m]
Details	278.15 K	283.15 K	298.15 K	308.15 K	318.15 K	343.15 K	363.15 K
m1 = 8.8e-05	0.0005802	0.0006955	0.0009523	0.00122	0.001433	0.002014	0.00252
m1 = 0.00092	0.006016	0.006909	0.009683	0.01152	0.01398	0.02009	0.02474
m1 = 0.00878	0.05214	0.05994	0.08551	0.1038	0.1234	0.1798	0.227
m1 = 0.0906	0.4638	0.5338	0.7669	0.9341	1.112	1.621	2.042
m1 = 0.4176	1.917	2.201	3.151	3.824	4.547	6.57	8.137
m1 = 0.8404	3.432	3.915	5.579	6.791	7.478	11.37	14.54
